Measurements: ChEMBL document CHEMBL4041487, “Drug Affinity Responsive Target Stability (DARTS) Identifies Laurifolioside as a New Clathrin Heavy Chain Modulator” (J Nat Prod, 2016)
The source made the active and inactive calls. The rule behind the calls is not given here.

What was measured:
[1] = target: Clathrin heavy chain 1 (Homo sapiens) (UniProt Q00610); assay: Inhibition of clathrin heavy chain 1 in human PC3 cells assessed as suppression of transferrin internalization at 30 uM pretreated for 15 mins followed by trasnferrin conjugate addition measured after 15 mins by laser scanning confocal microscopic analysis; assay type: cell-based
[2] = target: Clathrin heavy chain 1 (Homo sapiens) (UniProt Q00610); assay: Modulation of clathrin heavy chain 1 in human PC3 cells assessed as effect on transferrin endocytosis at 5 to 25 uM pretreated for 15 mins followed by trasnferrin conjugate addition measured after 15 mins by laser scanning confocal microscopic analysis; assay type: cell-based
PC-3 = assay: Antiproliferative activity against human PC3 cells measured after 24 hrs by MTT assay; assay type: functional, cell-based; settings: PC-3, 24 h
[3] = target: Clathrin heavy chain 1 (Homo sapiens) (UniProt Q00610); assay: Binding affinity to clathrin heavy chain 1 in human MCF7 cells at 20 to 40 uM measured after 2 hrs by DARTS assay; assay type: cell-based
MCF7 = assay: Antiproliferative activity against human MCF7 cells measured after 24 hrs by MTT assay; assay type: functional, cell-based; settings: MCF7, 24 h
[4] = target: Clathrin heavy chain 1 (Homo sapiens) (UniProt Q00610); assay: Binding affinity to clathrin heavy chain 1 in human PC3 cells at 20 to 40 uM measured after 2 hrs by DARTS assay; assay type: cell-based

Sequence of Clathrin heavy chain 1 (Homo sapiens) (Q00610 whole entry): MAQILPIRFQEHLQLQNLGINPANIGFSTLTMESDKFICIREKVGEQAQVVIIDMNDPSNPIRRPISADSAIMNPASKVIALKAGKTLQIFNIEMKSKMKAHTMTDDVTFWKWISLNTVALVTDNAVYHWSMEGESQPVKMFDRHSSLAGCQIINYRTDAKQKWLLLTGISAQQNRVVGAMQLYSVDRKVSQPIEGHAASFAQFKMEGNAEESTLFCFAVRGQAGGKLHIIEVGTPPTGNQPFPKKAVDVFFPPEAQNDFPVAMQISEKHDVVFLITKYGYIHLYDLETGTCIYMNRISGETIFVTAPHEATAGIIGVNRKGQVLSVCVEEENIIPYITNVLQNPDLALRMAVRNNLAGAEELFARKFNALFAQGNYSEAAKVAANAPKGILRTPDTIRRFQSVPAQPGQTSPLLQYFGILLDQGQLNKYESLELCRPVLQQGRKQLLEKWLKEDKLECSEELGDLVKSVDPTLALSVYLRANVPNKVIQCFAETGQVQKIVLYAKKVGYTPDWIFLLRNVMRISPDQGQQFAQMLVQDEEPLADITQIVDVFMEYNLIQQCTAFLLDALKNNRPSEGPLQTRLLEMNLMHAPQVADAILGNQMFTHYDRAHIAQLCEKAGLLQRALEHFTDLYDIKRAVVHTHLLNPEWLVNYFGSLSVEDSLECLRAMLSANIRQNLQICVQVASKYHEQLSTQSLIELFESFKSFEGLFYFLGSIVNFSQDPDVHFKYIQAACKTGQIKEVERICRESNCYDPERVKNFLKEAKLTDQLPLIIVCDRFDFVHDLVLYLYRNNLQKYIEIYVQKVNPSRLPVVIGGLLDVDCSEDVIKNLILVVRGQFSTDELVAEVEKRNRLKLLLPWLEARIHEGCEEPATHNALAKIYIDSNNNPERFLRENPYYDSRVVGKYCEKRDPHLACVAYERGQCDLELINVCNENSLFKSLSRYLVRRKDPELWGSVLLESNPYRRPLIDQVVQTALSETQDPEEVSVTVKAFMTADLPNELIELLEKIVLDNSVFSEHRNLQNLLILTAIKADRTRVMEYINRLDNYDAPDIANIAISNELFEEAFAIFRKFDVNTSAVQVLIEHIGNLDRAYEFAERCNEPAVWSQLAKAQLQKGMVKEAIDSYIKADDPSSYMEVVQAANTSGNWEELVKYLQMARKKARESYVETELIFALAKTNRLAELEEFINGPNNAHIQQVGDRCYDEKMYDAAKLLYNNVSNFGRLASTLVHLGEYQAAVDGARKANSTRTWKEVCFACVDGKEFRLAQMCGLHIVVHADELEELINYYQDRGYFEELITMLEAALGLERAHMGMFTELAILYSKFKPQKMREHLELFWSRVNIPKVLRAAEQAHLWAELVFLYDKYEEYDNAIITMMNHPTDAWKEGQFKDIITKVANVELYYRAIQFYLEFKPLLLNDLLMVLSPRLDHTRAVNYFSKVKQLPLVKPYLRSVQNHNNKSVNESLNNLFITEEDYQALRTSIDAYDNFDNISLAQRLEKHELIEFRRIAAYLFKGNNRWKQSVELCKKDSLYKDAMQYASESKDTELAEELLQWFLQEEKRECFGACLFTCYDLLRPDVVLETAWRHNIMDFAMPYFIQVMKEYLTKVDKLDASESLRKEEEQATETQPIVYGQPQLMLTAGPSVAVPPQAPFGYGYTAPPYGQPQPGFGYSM

SMILES | inhibition [1] | Activity [2] | IC50 (PC-3) [µM] | Activity [3] | IC50 (MCF7) [µM] | Activity [4]
O=C1N=C(NS(=O)(=O)c2cccc3ccccc23)S/C1=C/c1ccc(Br)cc1 | Active |  |  |  |  | 
C/C1=C/C2=C(C(=O)[C@H](C)C2)C(=O)[C@@H](C)C[C@@H]2[C@H](CC1)[C@@]2(C)CO[C@@H]1O[C@H](CO)[C@@H](O)[C@H](O)[C@H]1O |  | Active | 25 | Active | 32 | Active
